Experimental data: US20240393292A1, “ALLERGY ANTIGEN AND EPITOPE THEREOF” (HOYU CO., LTD., priority 2019, published 2024)
Each block holds one substance with its values, some of them ahead of it.

Test system: IgE antibodies from patients
Experiment: Wheat epitope mapping (2): overlapping 10-amino-acid peptide fragments shifted by one amino acid;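 on Rank of partial sequence as epitope binding to IgE antibody: key = sequence deemed particularly important within the common 15-residue sequence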;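 on epitope sequence binding to IgE antibody, rank (Key/Preferably/More preferably): key of grades: preferably = shorter partial sequence still acting as epitope; more preferably = sequence improving IgE binding; key = particularly important sequence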
Format: binding, human
In short: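 Residual binding was banded as <30% none, 30–<50% poor, 50–<70% somewhat poor and ≥70% retained, relative to the parent overlapping sequence set to 100%. Values were chemiluminescent IgE signals from patient sera after subtracting secondary-antibody-only controls. The peptides were spot-synthesised 10-mers shifted by one amino acid.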

[1] = serum of patient P52 (child, general immediate type allergy to wheat), sequence without X
[2] = serum of patient P10 (WDEIA), sequence without X
[3] = serum of patient P27 (WDEIA), sequence without X
[4] = serum of patient P8 (WDEIA), partial sequence
[5] = serum of patient P50 (child, general immediate type allergy to wheat), sequence without X
[6] = serum of patient P7 (WDEIA), sequence without X
[7] = serum of patient G5 (adult, general immediate type allergy to wheat)
[8] = serum of patient P17 (WDEIA), sequence without X
[9] = serum of patient G3 (adult, general immediate type allergy to wheat), partial sequence
[10] = serum of patient P8 (WDEIA), sequence without X
[11] = serum of patient P18 (WDEIA), sequence without X
[12] = serum of patient P14 (WDEIA), sequence without X

- epitope sequence binding to IgE antibody, rank (Key/Preferably/More preferably) (serum of patient P56 (child, general immediate type allergy to wheat)): Key
Substance: 1735 (EAANFT; REGION 1..6: note = epitope) [compound 1735]

- Epitope sequence binding to IgE antibody, rank of the sequence (Key/Preferably/More preferably) (serum of patient G2 (adult, general immediate type allergy to wheat), sequence without X): Key
Substance: 2480 (KAWSG; REGION 1..5: note = epitope) [compound 2480]

- Epitope sequence binding to IgE antibody, rank of the sequence (serum of patient P16 (WDEIA), partial sequence): Key
Substance: 2710 (YKIGG; REGION 1..5: note = epitope) [compound 2710]

- Epitope sequence binding to IgE antibody, rank of the sequence (Key/Preferably/More preferably) [1]: Key
Substance: 2254 (NYRV; REGION 1..4: note = epitope) [compound 2254]

- epitope sequence binding to IgE antibody, rank (Key/Preferably/More preferably) (serum of patient P15 (WDEIA)): Preferably
Substance: 1798 (EALPKFLKN; REGION 1..9: note = epitope) [compound 1798]

- epitope sequence binding to IgE antibody, rank (Key/Preferably/More preferably) (serum of patient P33 (WDEIA)): Key
Substance: 1767 (KKVGYNP; REGION 1..7: note = epitope) [compound 1767]

- Epitope sequence binding to IgE antibody, rank of the sequence (Key/Preferably/More preferably) [1]: More preferably
Substance: 2472 (SGKTENEE; REGION 1..8: note = epitope) [compound 2472]

- Rank of partial sequence as epitope binding to IgE antibody [2]: More preferably
Substance: 1524 (QVPLVQQQQ; REGION 1..9: note = epitope) [compound 1524]

- Epitope sequence binding to IgE antibody, rank of the sequence (Key/Preferably/More preferably) [3]: Key
Substance: 2288 (KRVIERF; REGION 1..7: note = epitope) [compound 2288]

- Epitope sequence binding to IgE antibody, rank of the sequence [4]: Preferably
Substance: 2706 (YKIGGIGTV; REGION 1..9: note = epitope) [compound 2706]

- Epitope sequence binding to IgE antibody, rank of the sequence (Key/Preferably/More preferably/Further preferably) [5]: Key
Substance: 2247 (LLRGIRNYRV; REGION 1..10: note = epitope) [compound 2247]

- Epitope sequence binding to IgE antibody, rank of the sequence (Key/Preferably/More preferably) [6]: Key
Substance: 2269 (LGGIDK; REGION 1..6: note = epitope) [compound 2269]

- Epitope sequence binding to IgE antibody, rank of the sequence (serum of patient P21 (WDEIA), sequence without X): Key
Substance: 1189 (QQFPPQ; REGION 1..6: note = epitope) [compound 1189]

- epitope sequence binding to IgE antibody, rank (Key/Preferably/More preferably) [7]: Preferably
Substance: 1746 (EAANFTS; REGION 1..7: note = epitope) [compound 1746]

- Rank of partial sequence as epitope binding to IgE antibody (serum of patient G3 (adult, general immediate type allergy to wheat), sequence without X): Preferably
Substance: 1666 (YNPDKVP; REGION 1..7: note = epitope) [compound 1666]

- Epitope sequence binding to IgE antibody, rank of the sequence [8]: Key
Substance: 1320 (NVEN; REGION 1..4: note = epitope) [compound 1320]

- Epitope sequence binding to IgE antibody, rank of the sequence (serum of patient P22 (WDEIA), sequence without X): Key
Substance: 1333 (INVEN; REGION 1..5: note = epitope) [compound 1333]

- Epitope sequence binding to IgE antibody, rank of the sequence [2]: Key
Substance: 1380 (PWQQQPLPPQ; REGION 1..10: note = epitope) [compound 1380]

- epitope sequence binding to IgE antibody, rank (Key/Preferably/More preferably) (serum of patient P17 (WDEIA)): Key
Substance: 1800 (KELEALPK; REGION 1..8: note = epitope) [compound 1800]

- Epitope sequence binding to IgE antibody, rank of the sequence [9]: Preferably
Substance: 2623 (SAKPLL; REGION 1..6: note = epitope) [compound 2623]

- epitope sequence binding to IgE antibody, rank (Key/Preferably/More preferably) (serum of patient P8 (WDEIA)): Key
Substance: 1756 (VSSYLKK; REGION 1..7: note = epitope) [compound 1756]

- Epitope sequence binding to IgE antibody, rank of the sequence (serum of patient P20 (WDEIA), partial sequence): Key
Substance: 2554 (LQQSTYQLVQ; REGION 1..10: note = epitope) [compound 2554]

- Epitope sequence binding to IgE antibody, rank of the sequence (Key/Preferably/More preferably) [8]: Key
Substance: 2226 (RNYR; REGION 1..4: note = epitope) [compound 2226]

- epitope sequence binding to IgE antibody, rank (Key/Preferably/More preferably) (serum of patient G1 (adult, general immediate type allergy to wheat)): Key
Substance: 1741 (SQVIIM; REGION 1..6: note = epitope) [compound 1741]

- epitope sequence binding to IgE antibody, rank (Key/Preferably/More preferably) (serum of patient P50 (child, general immediate type allergy to wheat)): Preferably
Substance: 1722 (KEAANFT; REGION 1..7: note = epitope) [compound 1722]

- Rank of partial sequence as epitope binding to IgE antibody [3]: Preferably
Substance: 1474 (LQPQQPIS; REGION 1..8: note = epitope) [compound 1474]

- epitope sequence binding to IgE antibody, rank (Key/Preferably/More preferably) (serum of patient P3 (WDEIA)): Key
Substance: 1902 (QQFPGQQ; REGION 1..7: note = epitope) [compound 1902]

- Rank of partial sequence as epitope binding to IgE antibody [5]: Key
Substance: 1591 (QPFPQTQQP; REGION 1..9: note = epitope) [compound 1591]

- Epitope sequence binding to IgE antibody, rank of the sequence (serum of patient P4 (WDEIA), sequence without X): Preferably
Substance: 1371 (QPLPPQQQP; REGION 1..9: note = epitope) [compound 1371]

- Epitope sequence binding to IgE antibody, rank of the sequence (Key/Preferably/More preferably) [3]: Preferably
Substance: 2376 (AYVTEIV; REGION 1..7: note = epitope) [compound 2376]

- Rank of partial sequence as epitope binding to IgE antibody [8]: More preferably
Substance: 1539 (LVQQQQFLG; REGION 1..9: note = epitope) [compound 1539]

- epitope sequence binding to IgE antibody, rank (Key/Preferably/More preferably) (serum of patient P26 (WDEIA)): Key
Substance: 1865 (TVRTLQR; REGION 1..7: note = epitope) [compound 1865]

- Epitope sequence binding to IgE antibody, rank of the sequence (Key/Preferably/More preferably) (serum of patient G7 (adult, general immediate type allergy to wheat), sequence without X): Key
Substance: 2418 (TEIVL; REGION 1..5: note = epitope) [compound 2418]

- Epitope sequence binding to IgE antibody, rank of the sequence [6]: Preferably
Substance: 1173 (QQQQFPPQQP; REGION 1..10: note = epitope) [compound 1173]

- Rank of partial sequence as epitope binding to IgE antibody (serum of patient P34 (WDEIA), sequence without X): Preferably
Substance: 1483 (YLQPQQPIS; REGION 1..9: note = epitope) [compound 1483]

- Epitope sequence binding to IgE antibody, rank of the sequence [10]: Preferably
Substance: 1176 (QQFPPQQ; REGION 1..7: note = epitope) [compound 1176]

- Rank of partial sequence as epitope binding to IgE antibody [5]: Preferably
Substance: 1558 (PLVQQQQF; REGION 1..8: note = epitope) [compound 1558]

- epitope sequence binding to IgE antibody, rank (Key/Preferably/More preferably) (serum of patient P15 (WDEIA)): Key
Substance: 1930 (FPGQQQ; REGION 1..6: note = epitope) [compound 1930]

- epitope sequence binding to IgE antibody, rank (Key/Preferably/More preferably) (serum of patient P55 (child, general immediate type allergy to wheat)): Preferably
Substance: 1774 (YLKKVGYNP; REGION 1..9: note = epitope) [compound 1774]

- epitope sequence binding to IgE antibody, rank (Key/Preferably/More preferably) (serum of patient P17 (WDEIA)): Key
Substance: 1933 (VPLVQQ; REGION 1..6: note = epitope) [compound 1933]

- Epitope sequence binding to IgE antibody, rank of the sequence [10]: Key
Substance: 1177 (QQFPPQ; REGION 1..6: note = epitope) [compound 1177]

- Rank of partial sequence as epitope binding to IgE antibody [11]: Preferably
Substance: 1441 (YLQPQQPISQ; REGION 1..10: note = epitope) [compound 1441]

- Epitope sequence binding to IgE antibody, rank of the sequence (serum of patient P34 (WDEIA), partial sequence): Preferably
Substance: 2745 (KIGGIG; REGION 1..6: note = epitope) [compound 2745]

- Epitope sequence binding to IgE antibody, rank of the sequence (serum of patient P31 (WDEIA), partial sequence): Key
Substance: 2653 (EAAE; REGION 1..4: note = epitope) [compound 2653]

- Epitope sequence binding to IgE antibody, rank of the sequence (Key/Preferably/More preferably) [11]: Key
Substance: 2228 (NYRVAI; REGION 1..6: note = epitope) [compound 2228]

- Rank of partial sequence as epitope binding to IgE antibody (serum of patient P36 (WDEIA), sequence without X): Key
Substance: 1647 (YNPD; REGION 1..4: note = epitope) [compound 1647]

- Rank of partial sequence as epitope binding to IgE antibody [3]: Key
Substance: 1630 (PDKVPFVPIS; REGION 1..10: note = epitope) [compound 1630]

- epitope sequence binding to IgE antibody, rank (Key/Preferably/More preferably) [7]: Key
Substance: 1747 (EAANFT; REGION 1..6: note = epitope) [compound 1747]

- Epitope sequence binding to IgE antibody, rank of the sequence (Key/Preferably/More preferably) (serum of patient G1 (adult, general immediate type allergy to wheat), sequence without X): Key
Substance: 2262 (RNYRVAI; REGION 1..7: note = epitope) [compound 2262]

- Epitope sequence binding to IgE antibody, rank of the sequence (Key/Preferably/More preferably) (serum of patient P5 (WDEIA), sequence without X): Key
Substance: 2268 (ERFEK; REGION 1..5: note = epitope) [compound 2268]

- Epitope sequence binding to IgE antibody, rank of the sequence [4]: Key
Substance: 2676 (YKGPTL; REGION 1..6: note = epitope) [compound 2676]

- Rank of partial sequence as epitope binding to IgE antibody [12]: More preferably
Substance: 1427 (YLQPQQPISQ; REGION 1..10: note = epitope) [compound 1427]

- epitope sequence binding to IgE antibody, rank (Key/Preferably/More preferably) (serum of patient P8 (WDEIA)): Preferably
Substance: 1912 (QVPLVQQQ; REGION 1..8: note = epitope) [compound 1912]

- Epitope sequence binding to IgE antibody, rank of the sequence [2]: Key
Substance: 1424 (SQQQA; REGION 1..5: note = epitope) [compound 1424]

- Rank of partial sequence as epitope binding to IgE antibody (serum of patient P33 (WDEIA), sequence without X): Key
Substance: 1637 (YNPDKVPF; REGION 1..8: note = epitope) [compound 1637]

- Epitope sequence binding to IgE antibody, rank of the sequence [9]: Key
Substance: 2626 (LSKRV; REGION 1..5: note = epitope) [compound 2626]

- Epitope sequence binding to IgE antibody, rank of the sequence (serum of patient P32 (WDEIA), partial sequence): Preferably
Substance: 2587 (QLVQQLCC; REGION 1..8: note = epitope) [compound 2587]

- Rank of partial sequence as epitope binding to IgE antibody [12]: Preferably
Substance: 1532 (QVPLVQQQ; REGION 1..8: note = epitope) [compound 1532]

- Epitope sequence binding to IgE antibody, rank of the sequence (serum of patient P35 (WDEIA), partial sequence): Key
Substance: 2593 (QLVQ; REGION 1..4: note = epitope) [compound 2593]
